# Test results from patent publication US20240261417A1, “SOS1 DEGRADING AGENT AND PREPARATION METHOD THEREFOR AND APPLICATION THEREOF” (SHANGHAI LEADINGTAC PHARMACEUTICAL CO. LTD., priority 2021, published 2024).
# Molecular target: T1, SOS1 protein (Homo sapiens, UniProt Q07889)
# T1 sequence (Q07889 1-1333): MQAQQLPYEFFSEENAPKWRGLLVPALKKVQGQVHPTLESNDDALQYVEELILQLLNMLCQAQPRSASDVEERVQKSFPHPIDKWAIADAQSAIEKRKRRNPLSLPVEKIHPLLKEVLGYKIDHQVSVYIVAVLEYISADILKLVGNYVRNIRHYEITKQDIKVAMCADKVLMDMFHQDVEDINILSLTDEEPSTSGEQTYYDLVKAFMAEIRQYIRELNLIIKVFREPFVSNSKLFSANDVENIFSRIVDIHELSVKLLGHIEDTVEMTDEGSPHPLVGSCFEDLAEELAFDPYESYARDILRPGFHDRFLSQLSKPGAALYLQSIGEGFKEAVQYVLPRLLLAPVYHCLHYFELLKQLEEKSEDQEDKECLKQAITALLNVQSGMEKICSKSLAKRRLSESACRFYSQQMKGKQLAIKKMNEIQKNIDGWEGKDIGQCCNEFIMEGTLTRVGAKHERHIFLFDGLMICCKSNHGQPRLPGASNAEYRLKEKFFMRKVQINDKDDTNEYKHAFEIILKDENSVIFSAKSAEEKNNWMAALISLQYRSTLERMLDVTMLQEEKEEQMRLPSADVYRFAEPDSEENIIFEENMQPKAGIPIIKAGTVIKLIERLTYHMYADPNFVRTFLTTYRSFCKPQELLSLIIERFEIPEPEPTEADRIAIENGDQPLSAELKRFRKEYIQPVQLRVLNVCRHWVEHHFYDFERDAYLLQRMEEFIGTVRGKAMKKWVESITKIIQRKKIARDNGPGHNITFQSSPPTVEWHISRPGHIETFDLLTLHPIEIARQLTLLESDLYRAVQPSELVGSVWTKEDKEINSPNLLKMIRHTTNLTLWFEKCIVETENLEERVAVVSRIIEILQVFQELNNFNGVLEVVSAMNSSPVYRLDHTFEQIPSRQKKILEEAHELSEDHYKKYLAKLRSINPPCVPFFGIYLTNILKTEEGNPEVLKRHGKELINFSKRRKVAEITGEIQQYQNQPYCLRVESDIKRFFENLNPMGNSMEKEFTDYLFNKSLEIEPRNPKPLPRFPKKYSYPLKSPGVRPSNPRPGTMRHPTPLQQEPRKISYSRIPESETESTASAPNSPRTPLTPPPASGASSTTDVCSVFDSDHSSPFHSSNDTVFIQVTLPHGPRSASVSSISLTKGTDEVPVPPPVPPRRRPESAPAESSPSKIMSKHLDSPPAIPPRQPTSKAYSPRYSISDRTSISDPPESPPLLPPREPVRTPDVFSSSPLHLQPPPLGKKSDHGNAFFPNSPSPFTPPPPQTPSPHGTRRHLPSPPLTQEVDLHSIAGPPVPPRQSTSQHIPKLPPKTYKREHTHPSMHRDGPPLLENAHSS
# Assay: SOS1 degradation assay (Western blot), NCI-H358 cells
# Format: cell-based
# Design: The degradation of SOS1 by the compounds was investigated on KRAS G12C mutant human non-small cell lung cancer cells NCI-H358; host or cells: NCI-H358 (human cancer cell lines)
# Conditions: SOS1 degradation, NCI-H358 cells, 24 h, Western blot; for DC50: read-out: NCI-H358 (G12C) DC50; for Dmax: read-out: NCI-H358 (G12C) Dmax
# Procedure: The specific procedures were as follows:
# 0.95 mL of cells were seeded into each well of a 24-well cell culture plate to achieve a cell density of 5×10^5 cells/well; the cell plate was incubated in an incubator at 37° C. with 5% CO2 overnight. Then 50 μL of the compound solution after dilution was added to each of the wells with the corresponding cells, so that the final concentration of the compound was in a range of 0.03-3000 nM. […] After dosing, the cell plate was incubated in an incubator at 37° C. with 5% CO2 for 24 h. […] After the plate was left to stand on ice for 30 min, the protein lysate in each well was transferred to a 1.5 mL centrifuge tube and centrifuged at 15000 g for 20 min at 4° C. The cell lysate supernatant after centrifugation was cryopreserved at −80° C. for testing and was used for determining the degradation level of the SOS1 protein by a WB method. The concentration of total protein in the cell lysate supernatant was determined using the BCA Protein Quantification Kit (Tiangen, PA115-02).
# The concentration of total protein in the cell lysate was determined by BCA. The total protein was adjusted to 0.5 μg/μL with PBS and 5× SDS-PAGE protein loading buffer (Beyotime, P0015L), incubated in a water bath at 100° C. for 15 min, incubated in an ice bath on ice for 5 min, centrifuged at 14000 g for 1 min at 4° C., and mixed well as a loading sample for WB. Protein electrophoresis was performed on a precast gel (KeyGEN, KGMGO10W15) with a loading volume of 10 μL (total protein: 5 μg) using a Tris-MOPS-SDS running solution (Adamas, P1598253) at a constant voltage of 120 V for 55 min. After the electrophoresis, the protein on the gel strip was transferred to a PVDF membrane at a constant current of 250 mA for 65 min. After the membrane transfer, the membrane was incubated in 1× QuickBlock blocking buffer (Beyotime, P0235) for 30 min at room temperature. […] The protein map was subjected to gray value analysis by the chemiluminescence imaging system from Clinx. […] Then the degradation rate was calculated by comparing the gray correction value with the gray correction value of the control group. Then nonlinear curve fitting was performed by GraphPad Prism 8 in the logarithmic concentration-inhibition rate to obtain the DC50 and Dmax values of the compounds.
SMILES,NCI-H358 (G12C) Dmax,DC50 [µM],Dmax [%]
"COc1cc2nc(C)nc(N[C@@H](C)c3cc(N)cc(C(F)(F)F)c3)c2cc1[C@H]1CC[C@@H](C(=O)N2CCN(CCC3CCC4(CC3)CCN(C(=O)c3ccc(Cl)c(N5CCC(=O)NC5=O)c3)CC4)CC2)CC1 [Example 34, 1-(5-(9-(2-(4-((1S,4S)-4-(4-(((R)-1-(3-amino-5-(trifluoromethyl)phenyl)ethyl)amino)-7-methoxy-2-methylquinazolin-6-yl)cyclohexane-1-carbonyl)piperazin-1-yl)ethyl)-3-azaspiro[5.5]undecane-3-carbonyl)-2-chlorophenyl)dihydropyrimidine-2,4(1H,3H)-dione]","C (when 30≤Dmax (%)<50, the level was C)",,
"[2H]C1([2H])CC(OCC2CCN(C(=O)c3ccc(Cl)c(N4CCC(=O)NC4=O)c3)CC2)CC([2H])([2H])N1C(=O)[C@H]1CC[C@H](c2cc3c(N[C@H](C)c4cc(N)cc(C(F)(F)F)c4)nc(C)nc3cc2OC)CC1 [Example 40, 1-(5-(4-(((1-((1R,4R)-4-(4-(((R)-1-(3-amino-5-(trifluoromethyl)phenyl)ethyl)amino)-7-methoxy-2-methylquinazolin-6-yl)cyclohexane-1-carbonyl)piperidin-4-yl-2,2,6,6-d4)oxy)methyl)piperidine-1-carbonyl)-2-chlorophenyl)dihydropyrimidine-2,4(1H,3H)-dione]",,1 to 10,< 30
"CCNc1cc([C@@H](C)Nc2nc(C)nc3cc(OC)c([C@H]4CC[C@H](C(=O)N5CCN(CC6CCC7(CC6)CCN(C(=O)c6ccc(Cl)c(N8CCC(=O)NC8=O)c6)CC7)CC5)CC4)cc23)cc(C(F)(F)F)c1 [Example 35, 1-(2-chloro-5-(9-((4-((1R,4R)-4-(4-(((R)-1-(3-(ethylamino)-5-(trifluoromethyl)phenyl)ethyl)amino)-7-methoxy-2-methylquinazolin-6-yl)cyclohexane-1-carbonyl)piperazin-1-yl)methyl)-3-azaspiro[5.5]undecane-3-carbonyl)phenyl)dihydropyrimidine-2,4(1H,3H)-dione]","C (when 30≤Dmax (%)<50, the level was C)",1 to 10,
COc1cc2nc(C)nc(N[C@H](C)c3cc(N)cc(C(F)(F)F)c3)c2cc1C1CCN(C(=O)C2CCN(CC3CCC4(CC3)CCN(C(=O)c3ccc(Cl)c(N5CCC(=O)NC5=O)c3)CC4)CC2)CC1 [Example 4],,0.05 to 0.1,30 to 50
"COc1cc2nc(C)nc(N[C@H](C)c3cc(N)cc(C(F)(F)F)c3)c2cc1[C@H]1CC[C@H](C(=O)N2CCN(CCCC3CCN(C(=O)c4ccc(Cl)c(N5CCC(=O)NC5=O)c4)CC3)CC2)CC1 [Example 11, 1-(5-(4-(3-(4-((1R,4R)-4-(4-(((R)-1-(3-amino-5-(trifluoromethyl)phenyl)ethyl)amino)-7-methoxy-2-methylquinazolin-6-yl)cyclohexane-1-carbonyl)piperazin-1-yl)propyl)piperidine-1-carbonyl)-2-chlorophenyl)dihydropyrimidine-2,4(1H,3H)-dione]",,1 to 10,30 to 50
"COc1ccc(C(=O)N2CCC(COCCC3CCN(C(=O)[C@H]4CC[C@H](c5cc6c(N[C@H](C)c7cc(N)cc(C(F)(F)F)c7)nc(C)nc6cn5)CC4)CC3)CC2)cc1N1CCC(=O)NC1=O [Example 36, 1-(5-(4-((2-(1-((1R,4R)-4-(4-(((R)-1-(3-amino-5-(trifluoromethyl)phenyl)ethyl)amino)-2-methylpyrido[3,4-d]pyrimidin-6-yl)cyclohexane-1-carbonyl)piperidin-4-yl)ethoxy)methyl)piperidine-1-carbonyl)-2-methoxyphenyl)dihydropyrimidine-2,4(1H,3H)-dione]",,0.1 to 0.5,50 to 80
